Molecular target: T1, cathepsin L (CatL) (Ixodes ricinus, UniProt A4GTA6)
T1 sequence (A4GTA6 119-335): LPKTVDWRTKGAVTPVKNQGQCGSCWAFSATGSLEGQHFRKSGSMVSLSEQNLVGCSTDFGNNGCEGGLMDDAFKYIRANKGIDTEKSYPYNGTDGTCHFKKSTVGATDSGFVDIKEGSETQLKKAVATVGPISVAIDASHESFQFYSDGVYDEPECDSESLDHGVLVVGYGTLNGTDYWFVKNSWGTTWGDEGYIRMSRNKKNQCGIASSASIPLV
Experiment: fluorimetric inhibition assay in gut extract
Type: biochemical
Conditions: DTT; pH optimum; 35 °C; covalent

CC(C)C[C@H](NC(=O)[C@H]1O[C@@H]1C(=O)O)C(=O)NCCCCNC(=N)N [E-64]
% inhibition: insensitive to E-64 (in contrast to cathepsins B, L and C)
